# Laboratory results reported in US6015801A, “Method for inhibiting bone resorption” (Merck & Co., Inc., priority 1998, dated 2000).
# Where two headings read alike, the source gives them in different places.
# Tests used:
# [1] = test system: canine esophagus; experiment: Esophageal irritation potential in a dog model (infusion into esophagus, histopathology); conditions: for Esophageal irritation potential: low dosages on consecutive days (Groups 7 and 8)
# Method: The esophageal irritation potential of the bisphosphonates is evaluated using a dog model.
# The following solutions are prepared:
# (1) simulated gastric juice (pH about 2), i.e. the control solution.
# (5) simulated gastric juice (pH about 2) containing about 0.20 mg/mL of risedronate sodium on a risedronic acid active basis.
# (6) simulated gastric juice (pH about 2) containing about 4.0 mg/mL of tiludronate disodium on a tiludronic acid active basis.
# The pH of the resulting solution is measured and if necessary is adjusted to about 2 using 1.0 M HCl (aqueous) or 1.0 M NaOH (aqueous).
# The animals used in the experiments are anesthetized and administered about 50 mL of the appropriate solution over about 30 minutes by infusion into the esophagus using an infusion pump and a rubber catheter. The following treatment experiments are run:
# Group 1: This control group contains four animals. Each animal is administered a dosage of about 50 mL of simulated gastric juice [solution (1)] on each of five consecutive days. The animals are sacrificed immediately after the last dose is administered. […]
# Group 7: This group contains eight animals. Each animal is administered a dosage of about 50 mL of simulated gastric juice containing about 0.20 mg/mL of risedronate [solution (5)] on each of five consecutive days. The animals are sacrificed immediately after the last dose is administered.
# Group 8: This group contains four animals. Each animal is administered a dosage of about 50 mL of simulated gastric juice containing about 4.0 mg/mL of tiludronate [solution (6)] on each of five consecutive days. The animals are sacrificed immediately after the last dose is administered.
# The esophagus from each sacrificed animal is removed and prepared for histopathology using standard techniques by embedding the tissue in paraffin, staining with hematoxylin and eosin. The sections are examined microscopically.
# [2] = test system: bone; conditions: Mortensen et al. 1995; cited from earlier work
# [3] = test system: esophagus; conditions: oral; literature; cited from earlier work
# [4] = test system: bone; conditions: cited from earlier work
# [5] = 0.20 mg/mL risedronate, 50 mL, 1x daily for 5 days, sacrifice immediately after last dosing (Group 7, n = 8)
# [6] = 0.20 mg/mL alendronate, 50 mL, 1x daily for 5 days, sacrifice immediately after last dosing (Group 2, n = 4), monosodium trihydrate
# [7] = 0.40 mg/mL alendronate, 50 mL, 2x weekly for 4 weeks (Group 6, n = 6), sacrifice about four days after last dose, immediately (Table 1), monosodium trihydrate
# [8] = 0.80 mg/mL alendronate, 50 mL, 1x weekly for a total of 4 doses, sacrifice 7 days after last dosing (Group 5, n = 6), monosodium trihydrate
# [9] = 0.80 mg/mL alendronate, 50 mL, single dose, sacrifice 24 hours after dosing (Group 3, n = 5), monosodium trihydrate
# [10] = 0.80 mg/mL alendronate, 50 mL, single dose, sacrifice 7 days after dosing (Group 4, n = 5), monosodium trihydrate
structure (smiles),measurement,setting,value
"O=P(O)(O)C(O)(Cc1cccnc1)P(=O)(O)O [Risedronate, 1-hydroxy-2-(3-pyridinyl)-ethylidene-1,1-bisphosphonic acid]",Histopathology: animals with deep ulceration of epithelial surface,[1]; [5],4 of 8 animals
same,Histopathology: esophageal epithelial surface,[1]; [5],deep ulceration of the epithelial surface
same,Histopathology: submucosal inflammation and vacuolation,[1]; [5],marked submucosal inflammation and vacuolation
same,Esophageal irritation potential,[1],high
same,"Antiresorptive bone effect, cyclic versus continuous daily dosing",[2],less effective than continuous daily dosing
"O=P(O)(O)C(Sc1ccc(Cl)cc1)P(=O)(O)O [Tiludronate, (4-chlorophenyl)thiomethane-1,1-disphosphonic acid]",Esophageal irritation potential,[1],high
"NCCCC(O)(P(=O)(O)O)P(=O)(O)O [Alendronate, 4-amino-1-hydroxybutylidene-1,1-bisphosphonic acid monosodium trihydrate]",Histopathology: esophageal epithelial surface,[1]; [6],deep ulceration of the epithelial surface
same,Histopathology: submucosal inflammation and vacuolation,[1]; [6],marked submucosal inflammation and vacuolation
same,Histopathology: esophageal epithelial surface,[1]; [7],deep ulceration of the epithelial surface
same,Histopathology: submucosal inflammation and vacuolation,[1]; [7],marked submucosal inflammation and vacuolation
same,Histopathology: vacuolation,"[1]; 0.80 mg/mL alendronate, 50 mL, 1x weekly for a total of 4 doses, sacrifice 7 days after last dosing (Group 5, n = 6)",no
same,Histopathology: esophageal epithelium,[1]; [8],normal with an intact epithelium
same,Histopathology: submucosal inflammation,[1]; [8],absence of inflammatory cells in the submucosa and no
same,Histopathology: esophageal epithelial surface,[1]; [9],intact epithelial surface
same,Histopathology: submucosal inflammation and vacuolation,[1]; [9],very slight submucosal inflammation and vacuolation
same,Histopathology: esophageal epithelium,[1]; [10],intact epithelium
same,Histopathology: vacuolation,[1]; [10],no vacuolation and no
same,Adverse esophageal effects associated with use,[3],esophagitis and/or esophageal ulcers
"NCCC(O)(P(=O)(O)O)P(=O)(O)O [Pamidronate, 3-amino-1-hydroxypropylidene-1,1-bisphosphonic acid]",Adverse esophageal effects associated with use,[3],esophageal ulcers
"CC(O)(P(=O)(O)O)P(=O)(O)O [Etidronate, 1-hydroxyethane-1,1-diphosphonic acid]",Effect on bone mineralization,[4]; at doses used clinically,impairs mineralization
same,Effect on bone mineralization,[4]; given daily for more than several days,decline in bone mineralization
